This assay concerns rabbit platelets. Description: ADP induced platelet aggregation in vitro, turbidimetric method (Born and Cross, modified). The conditions noted are these: percent of ADP controls, rabbit PRP. The format is cell-based. The source says: For the relevant study on the platelet aggregation "in vitro" herein, the turbidimetric method initially described by Born and Cross (J. Physiol. 168, 178, 1963) has been followed with some changes, principally due to the use of rabbit platelets, rather than human or pig platelets, as reported in their original work: (1) Preparation of platelet-rich plasma (PRP) and platelet-poor plasma (PPP) Male rabbits weighing 2.5-3.5 kg were used. Fifty four ml of blood were withdrawn from the carotid artery of rabbits anaesthetized with ether. The blood was gently mixed with six ml of 3.8% trisodium citrate as anticoagulant. The PRP was obtained by centrifugation at 400 g for 10 minutes. The concentration of the platelets was adjusted to 250,000/mm^3 by diluting the PRP with PPP prepared by a second centrifugation of the blood samples for about 10 minutes at 2000 g. The aggregation experiments were in general performed within 1-2 hr. from the time of blood collection. (2) ADP induced platelet aggregation In the cuvette of the aggregometer, reagents were added as follows: 0.8 ml PRP, 0.2 ml drug solution or saline, and 0.2 ml ADP (adenosine diphosphate) at the molar concentration of 2.2 × 10^-4. The turbidimetry was checked after 11/2, 3 and 6 minutes. The inhibition of the aggregation is given in the table as percent of ADP controls at these three times.

[1] abbreviates: 1 minute and 30 seconds after ADP, 50 γ.
Setting [2] is: 1 minute and 30 seconds after ADP, 100 γ.
Where [3] appears, read: 1 minute and 30 seconds after ADP, 200 γ.

From patent US4089862A, “Pyridyl substituted ergoline derivatives” (Societa' Farmaceutici Italia S.p.A., priority 1976, dated 1978) come the findings set out here.

SMILES strings stand for the structures.

Regarding `CO[C@]12C[C@@H](COC(=O)c3cncc(Br)c3)CN(C)[C@@H]1Cc1cn(C)c3cccc2c13` [355/347, 10-methoxy-1,6-dimethyl-8β-methanol-5-bromonicotinate, reference compound], the “percent inhibition of platelet aggregation” value (shortened to “percent inhibition”) is 11% under setting [1]; 24% under setting [2]; 40% under setting [3]; 12% (3 minutes after ADP, 50 γ); 21% (3 minutes after ADP, 100 γ); 50% (3 minutes after ADP, 200 γ). The “percent inhibition” value (6 minutes after ADP, 50 γ) was 22%; the “percent inhibition” value (6 minutes after ADP, 100 γ) is listed as 33%; the “percent inhibition” value (6 minutes after ADP, 200 γ) was found to be 60%.

For the compound `CO[C@]12C[C@@H](CNc3ccc(Br)cn3)CN(C)[C@@H]1Cc1cn(C)c3cccc2c13` [compound 893, N-(5'-bromo-2'-pyridyl)-10α-methoxy-1,6-dimethylergoline-8β-methanamine], the “percent inhibition” value is, setting by setting: under setting [1], 31%; under setting [2], 58%; under setting [3], 63%; (3 minutes after ADP, 50 γ) 14%; (3 minutes after ADP, 100 γ) 46%; (3 minutes after ADP, 200 γ) 69%. The “percent inhibition” value runs as follows: (6 minutes after ADP, 50 γ) 7%; (6 minutes after ADP, 100 γ) 52%; (6 minutes after ADP, 200 γ) 71%.

Turning to `CO[C@]12C[C@@H](CNc3cc(C)ccn3)CN(C)[C@@H]1Cc1cn(C)c3cccc2c13` [compound 894, N-(4'-methyl-2'-pyridyl)-10α-methoxy-1,6-dimethylergoline-8β-methanamine], the “percent inhibition” value by setting is: under setting [1], 22%; under setting [2], 61%; under setting [3], 100%; (3 minutes after ADP, 50 γ) 22%; (3 minutes after ADP, 100 γ) 61%; (3 minutes after ADP, 200 γ) 100%. The “percent inhibition” value is 29% (6 minutes after ADP, 50 γ); 71% (6 minutes after ADP, 100 γ); 100% (6 minutes after ADP, 200 γ).

`CO[C@]12C[C@@H](CNc3cc(C)cc(C)n3)CN(C)[C@@H]1Cc1cn(C)c3cccc2c13` [compound 897, N-(4',6'-dimethyl-2'-pyridyl)-10α-methoxy-1,6-dimethylergoline-8β-methanamine]: the “percent inhibition” value under setting [1] was determined as 31%; the “percent inhibition” value under setting [2] worked out at 62%; the “percent inhibition” value under setting [3] is 89%; the “percent inhibition” value (3 minutes after ADP, 50 γ) was 22%; the “percent inhibition” value (3 minutes after ADP, 100 γ) is reported as 51%; the “percent inhibition” value (3 minutes after ADP, 200 γ) worked out at 91%. Also, the “percent inhibition” value reads like this: (6 minutes after ADP, 50 γ) 25%; (6 minutes after ADP, 100 γ) 56%; (6 minutes after ADP, 200 γ) 92%.

`CO[C@]12C[C@@H](CNc3ccccn3)CN(C)[C@@H]1Cc1cn(C)c3cccc2c13` [compound 925, N-(2'-pyridyl)-10α-methoxy-1,6-dimethylergoline-8β-methanamine]: the “percent inhibition” value by setting is: under setting [1], 16%; under setting [2], 50%; under setting [3], 100%; (3 minutes after ADP, 50 γ) 21%; (3 minutes after ADP, 100 γ) 56%; (3 minutes after ADP, 200 γ) 100%. In addition, the “percent inhibition” value is 30% (6 minutes after ADP, 50 γ); 65% (6 minutes after ADP, 100 γ); 100% (6 minutes after ADP, 200 γ).

For `CO[C@]12C[C@@H](CSc3ccc([N+](=O)[O-])cn3)CN(C)[C@@H]1Cc1cn(C)c3cccc2c13` [compound 926, 5'-Nitro-2'-pyridyl-10α-methoxy-1,6-dimethylergoline-8β-methyl sulphide], the “percent inhibition” value reads like this: under setting [1], 25%; under setting [2], 61%; under setting [3], 100%; (3 minutes after ADP, 50 γ) 13%; (3 minutes after ADP, 100 γ) 55%; (3 minutes after ADP, 200 γ) 100%. Besides, the “percent inhibition” value was found to be 17% (6 minutes after ADP, 50 γ); 65% (6 minutes after ADP, 100 γ); 100% (6 minutes after ADP, 200 γ).
